Measured values published in paper PMC8955265, “Systematic Discovery of FBXW7-Binding Phosphodegrons Highlights Mitogen-Activated Protein Kinases as Important Regulators of Intracellular Protein Levels” (International Journal of Molecular Sciences, 2022).
Where a SMILES comes first, the peptide text is derived from it. [ ]: non-standard residue; d: D form. pT = C[C@@H](OP(=O)(O)O)[C@H](N)C(=O)O; pS = N[C@@H](COP(=O)(O)O)C(=O)O

Tests used:
[1] = system: FBXW7-mediated protein degradation; assay: Ratiometric DsRed/EGFP protein level assay of full-length proteins with kinase inhibitors; format: cell-based, HEK293T cells; conditions: for ZMIZ1 level: full-length ZMIZ1, HEK293T + FBXW7, inhibitor 2 µM
Procedure: HEK293T cells (purchased from ATCC, CRL-3216) were cultured in Dulbecco’s Modified Eagle’s Medium (DMEM, Gibco, Waltham, MA, USA) containing 10% FBS (Gibco, Cat# 10500064), 100 µg/mL Pen/strep (Sigma, P0781) and Amphotericin B (Thermo Fisher, 15290026) at 37 °C in an atmosphere of 5% CO2. Approximately 90,000 cells were plated in 24-well Greiner bio-one plates (#662-160). The next day cells were transfected with Lipofectamine 3000 reagent (L3000001, Invitrogen, Waltham, MA, USA) using the Opti-MEM reduced serum media (Gibco, 31985062). The transfection media was changed with complete DMEM after 4–6 h of transfection. Cells in a 24-well plate were transfected with 500 ng of plasmid DNA in total, for co-transfection each plasmid construct was used in 250 ng amount. For western blots, cells were washed in ice-cold PBS and harvested in SDS loading buffer and then subjected to SDS-PAGE. The samples were then transferred to nitrocellulose membrane. Primary antibodies were the following: Anti-V5 (Invitrogen; 1:5000 dilution), anti-FLAG (Sigma #F1804; 1:5000 dilution), anti-cMyc (#2276, Cell signaling, Danvers, MA, USA) 1:1000 dilution) and anti-tubulin (Sigma #T6199; 1:50,000 dilution). Secondary antibodies (IRDye® 800CW Goat anti-Mouse IgG, LiCOR #926-32210 and IRDye® 680CW Goat anti-Mouse IgG, LiCOR #926-68070; 1:5000 dilution) were used according to the recommendation of the manufacturer and blots were analyzed by Odyssey CLx imaging system (Li-Cor). Kinase inhibitors were used in 2 µM concentration added 6 h before protein level measurements: GSK3—CHR99021 (#S2924, Selleckchem, Munich, Germany), ERK1/2—SCH772984 (Selleckchem, #S7101), p38—SB202190 (Sigma-Aldrich, #S7067), and JNK—JNK-IN-8 (Selleckchem, #S4901). MG132 proteosomal inhibitor (Merck, #474790) was used in 10 µM concentration and cycloheximide (# 239763, Calbiochem, San Diego, CA, USA) was used in 100 µg/mL concentration. HEK293T cells were washed with 500 μL ice-cold PBS twice and gently collected using a pipette 48 h after transfection. The suspension was centrifuged at 500× g for 10 min at 4 °C. After centrifugation, the cell pellet was resuspended in 110 µL ice cold PBS and the fluorescence signal for EGFP (Excitation 485 nm; Emission 515 nm) and DsRed (Excitation 550 nm; Emission 580 nm) was measured in Corning 384-well microplate (#4514) using a plate reader (CytationTM 3, BioTek Instruments, Winooski, VT, USA).

Skp1-FBXW7 complex = target: T1, Skp1-FBXW7 complex (Homo sapiens, UniProt P63208+Q969H0); assay: Fluorescence polarization competitive protein-peptide binding assay; conditions: for binding affinity to purified FBXW7 in vitro: FP based quantitative in vitro binding assay, result in words; for Kd: FP competition of unlabeled peptide against 50 nM CF-labeled CCNE peptide at ~60-80% complex formation, 20 mM Tris pH 8.0, 100 mM NaCl, 0.05% Brij35P, 2 mM TCEP, value with error
T1 construct: human FBXW7 (263-707) with an N-terminal hexa-histidine (His6) tag; His6 (N, cleaved yes); made in house; host or cells: E. coli Rosetta (DE3)
Procedure: Truncated Skp1 (1-149) and human FBXW7 (263-707) with an N-terminal hexa-histidine (His6) tag were cloned into a bicistronic plasmid (pMG950) and were co-expressed in E. coli Rosetta (DE3) strain. The Skp1-FBXW7 complex was purified using affinity, anion exchange, and gel filtration chromatography. The DNA expression plasmid was transformed into E. coli Rosetta (DE3) strain and grown in LB until OD600 = 0.5, protein expression was induced with 100 µM isopropyl-β-d-1-thigalatopyaranoside (IPTG) overnight at 18 °C. The cell pellet was lysed, and the recombinant protein was purified using Ni-NTA agarose beads. Before further purification the His6-tag was removed by using the TEV protease and then the protein complex was further purified using anion exchange chromatography twice, first with a Resource Q and then with a Mono Q column (pH = 8). Finally, the complex was subjected to size-exclusion chromatography in 20 mM Tris, pH = 8, 150 mM NaCl, and 1 mM DTT using a Superdex200 10/300 column (GE Healthcare, Chicago, IL, USA). The eluted fractions were pooled together and were supplemented with 10% glycerol and 2 mM TCEP before concentration and storage.
Fluoresce polarization (FP) based protein–peptide binding affinity measurements were carried out using 50 nM carboxyfluorescein (CF) labeled CCNE peptide (CF-PSGLLpTPPQpSGKKQ) and data were fit to a direct or a competitive binding equation using OriginPro 2018 as described earlier. For the direct measurements the concentration of Skp1-FBXW7 complex was increased in a titration experiment and then the binding affinity (Ki) of the unlabeled peptide was determined by titrating the Skp1-FBXW7: labelled peptide complex sample, at a concentration corresponding to ~60–80% complex formation, with increasing amounts of unlabeled peptide. All the FP measurements were performed in 20 mM Tris (pH 8.0), 100 mM NaCl, 0.05% Brij35P, and 2 mM TCEP using a Cytation^TM 3 (BioTek Instruments) plate reader (384-well plates in 20 µL binding reaction volume). Peptides were chemically synthesized and were ordered from GenScript.

FBXW7 = assay: Ratiometric EGFP/DsRed protein degradation assay with degron probes; format: cell-based, human; conditions: putative degron motif in EGFP-fused probe with AAKG2 MAPK docking motif; HEK293T, 48 h after transfection, EGFP/DsRed ratio with and without FBXW7 plasmid; search cycles 1-4
From the text: In order to be able to test putative phosphodegron motifs, a ratiometric protein level monitoring method was adapted to monitor MAPK controlled FBXW7 mediated protein degradation. Briefly, intact DsRed and an EGFP-chimera were expressed in HEK293T cells in equal amounts from an expression plasmid, giving an EGFP/DsRed fluorescence ratio close to one under non-degrading conditions. EGFP was fused to a probe comprised of a putative degron sequence and a known MAPK binding docking motif. EGFP signal is expected to diminish faster than DsRed in cells with more FBXW7 if the probe responded to degradation.
We started out from an intentionally general consensus motif of FBXW7 degrons, inspired by the liberal [TS]P..[TS]P pattern defined for yeast Cdc4 substrates, and scanned the human disordered part of the proteome using SliMSearch4 (the disorder score cut-off was 0.4 and flank length was 5). In all, 22 motifs from this list were subjectively chosen and tested in the ratiometric degradation assay giving only 5 positives (see Supplementary Table S1). Based on the results of this first round, by taking information both from the identified positives and negatives, the consensus motif definition was narrowed to requiring a proline at P + 2, but motifs were allowed to have a phospho-mimicking residue (D or E) at P + 4 because it had been formerly reported that this second phosphorylatable residue may be replaced by aspartate or glutamate. […] In the third round, hydrophobic amino acids were more strictly required at positions −1/−2 and P − 1/2/3 positions were further narrowed and P + 4 position was relaxed based on the identified negatives, which gave a higher hit rate (4 out of 6). This third round gave functional motifs at a good rate, but the used motif definition was very restrictive compared to other known motifs. Finally, in the fourth round, we gave up using an optimal consensus and established the positional relaxation model. […] Hits on this final, most predictive list are presented in Supplementary Table S2. All entries were filtered for motif locations by UniProt annotations, discarding all enzyme-inaccessible (e.g., extracellular) instances. Motifs that had any overlapping PFAM domain indicated were manually assessed using the AlphaFold EBI website. Out of these, only motifs that were highly accessible and located outside of confidently predicted folded domains were kept. We also added kinase consensus compatibility to every motif and the number of experiments where phosphorylation could be detected from PhosphoSitePlus.
The chimera degron module was ordered from IDT as gene Block (gBlock). It consisted of a coiled coil dimerization motif (GCN4: EELLSKNYHLENEVARLKK) to increase sensitivity by allowing multivalent binding, a MAPK binding docking motif (AAKG2: KKNASQKRRSLRVHIPDL), and the CycECO degron motif. The motifs were separated by Gly-Ser-Asn linkers and the gBlock was designed so that the motifs could be easily changed by using unique sets of restriction endonucleases. The gBlock was sub-cloned into the Gateway pENTR4 entry plasmid (Thermo Fisher, Waltham, MA, USA) using restriction enzymes (SalI and NotI). The pENTR4-chimera and the destination plasmid (MSCV-CMV-DsRed-IRES-EGFP-DEST from Addgene; 41941), [28]) were subjected to gateway cloning using LR clonase II enzyme (Invitrogen) to obtain the first DsRed-EGFP-chimera DNA construct containing the cycECO degron. Oligonucleotides corresponding to different degron sequences and docking motifs were ligated into the DsRed-EGFP-chimera DNA construct. The list of all the oligonucleotides used for cloning is provided in Supplementary Table S3. pcDNA3-FLAG-FBXW7α was a kind gift from Michael Pagano (New York University). The FBXW7 arginine mutant (Arg mutant: R465C; R479Q; R505L) was created using two-step PCR and cloned into the pcDNA3-FLAG plasmid. […]

T1 sequence (Q969H0 263-707): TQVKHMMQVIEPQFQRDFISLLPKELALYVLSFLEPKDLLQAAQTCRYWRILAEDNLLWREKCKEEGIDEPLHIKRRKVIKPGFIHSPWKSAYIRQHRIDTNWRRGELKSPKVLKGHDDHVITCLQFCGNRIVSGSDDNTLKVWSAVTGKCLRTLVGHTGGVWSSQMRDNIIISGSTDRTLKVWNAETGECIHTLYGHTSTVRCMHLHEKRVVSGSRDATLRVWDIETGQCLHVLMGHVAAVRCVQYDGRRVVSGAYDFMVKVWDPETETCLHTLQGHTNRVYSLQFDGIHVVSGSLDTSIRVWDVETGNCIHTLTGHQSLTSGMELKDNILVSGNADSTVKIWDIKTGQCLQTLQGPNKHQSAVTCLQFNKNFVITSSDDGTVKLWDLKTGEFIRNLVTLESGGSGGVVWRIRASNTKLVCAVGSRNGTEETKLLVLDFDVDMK
T1 sequence (P63208 1-149 partner limits assumed): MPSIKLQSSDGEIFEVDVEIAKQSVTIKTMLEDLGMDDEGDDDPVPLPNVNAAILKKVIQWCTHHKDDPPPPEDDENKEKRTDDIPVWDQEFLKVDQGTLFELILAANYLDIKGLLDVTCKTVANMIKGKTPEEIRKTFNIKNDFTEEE

Row | ZMIZ1 level ([1]; 6 h) | binding affinity to purified FBXW7 in vitro (Skp1-FBXW7 complex) | Kd (Skp1-FBXW7 complex) | Compound | other results
1 |  |  |  | Cc1cnc(-c2cnc(NCCNc3ccc(C#N)cn3)nc2-c2ccc(Cl)cc2Cl)[nH]1 [CHR99021] | effect on FBXW7-mediated degradation of full-length constructs ([1]; HEK293T, inhibitor 2 µM added 6 h before DsRed/EGFP measurement): no effect
2 | affected |  |  | Cc1cc(NC(=O)c2cccc(NC(=O)/C=C/CN(C)C)c2)ccc1Nc1nccc(-c2cccnc2)n1 [JNK-IN-8] | effect on ARID4B level ([1]; full-length ARID4B, HEK293T + FBXW7, inhibitor 2 µM, 6 h): significant effect
3 |  | low nanomolar | 11 ± 1 nM | CSCC[C@H](NC(=O)CNC(=O)[C@H](Cc1c[nH]cn1)NC(=O)[C@@H](N)[C@@H](C)O)C(=O)N[C@@H](CCSC)C(=O)N[C@@H](CC(C)C)C(=O)N[C@H](C(=O)N1CCC[C@H]1C(=O)N1CCC[C@H]1C(=O)N[C@@H](CO)C(=O)N[C@@H](COP(=O)(O)O)C(=O)N1CCC[C@H]1C(=O)N[C@@H](CC(C)C)C(=O)N[C@@H](CCC(=O)O)C(=O)N[C@@H](CC(C)C)C(=O)O)[C@@H](C)OP(=O)(O)O [KLF4] (H-THGMML[pT]PPS[pS]PLEL-OH) | 
4 | affected |  |  | O=C(Nc1ccc2[nH]nc(-c3ccncc3)c2c1)[C@@H]1CCN(CC(=O)N2CCN(c3ccc(-c4ncccn4)cc3)CC2)C1 [SCH772984] | 
5 |  | low nanomolar | 52.3 ± 2.6 nM | CSCC[C@H](NC(=O)[C@@H]1CCCN1C(=O)[C@@H]1CCCN1C(=O)[C@@H](NC(=O)[C@@H]1CCCN1C(=O)[C@H](CC(N)=O)NC(=O)CNC(=O)[C@@H]1CCCN1C(=O)[C@@H](NC(=O)[C@@H]1CCCN1)C(C)C)[C@@H](C)OP(=O)(O)O)C(=O)N[C@H](C(=O)N1CCC[C@H]1C(=O)NCC(=O)N[C@@H](CO)C(=O)N[C@@H](CO)C(=O)O)[C@@H](C)OP(=O)(O)O [ZMIZ1] (H-PVPGNP[pT]PPM[pT]PGSS-OH) | 
6 |  | low micromolar |  | LGPPPGLLTPPVATELSQN [CCAR2, synthetic peptide of the CCAR2 motif, P + 4 nonphospho class] | Outcome (FBXW7): Positive (tested positive, where +FBXW7/control protein level ratio was lower than 1)
